Experimental data published in BindingDB's records for doi:10.1021/acs.jmedchem.6b01785 (Chinese Academy of Sciences, 2017).

Assays:
[1] = Inhibition of DOT1L in human MV4-11 cells assessed as reduction in cell viability after 72 hrs by alamar blue assay
[2] = Inhibition of DOT1L in human KOPN8 cells assessed as reduction in cell viability after 72 hrs by alamar blue assay
[3] = Inhibition of DOT1L in human THP-1 cells assessed as reduction in cell viability after 72 hrs by alamar blue assay

SMILES | IC50 [1] | IC50 [2] | IC50 [3]
c1ccc2c(c1)nnn2Cc1nnc2sc(-c3ccc4c(c3)OCO4)nn12 | 6.75 µM | – | –
Fc1cccc(-c2nn3c(Cn4nnc5ccccc54)nnc3s2)c1 | 21.9 µM | 28.1 µM | 55.8 µM
c1ccc(Cc2nn3c(Cn4nnc5ccccc54)nnc3s2)cc1 [3-(1-benzotriazolylmethyl)-6-(phenylmethyl)-[1,2,4]triazolo[3,4-b][1,3,4]thiadiazole] | 48.8 µM | – | –
CC(C)(C)c1ccc(-c2nn3c(Cn4nnc5ccccc54)nnc3s2)cc1 | 13.1 µM | – | –
Fc1ccc(-c2nn3c(Cn4nnc5ccccc54)nnc3s2)cc1 | 8 µM | – | –
c1ccc2c(c1)nnn2Cc1nnc2sc(-c3ccc4c(c3)OCCO4)nn12 [1-{[6-(2,3-dihydro-1,4-benzodioxin-6-yl)[1,2,4]triazolo[3,4-b][1,3,4]thiadiazol-3-yl]methyl}-1H-1,2,3-benzotriazole] | 40.7 µM | – | –
Cc1ccc(-c2nn3c(Cn4cnc5ccccc54)nnc3s2)cc1C | 64 µM | – | –
COc1cccc(-c2nn3c(Cn4nnc5ccccc54)nnc3s2)c1 | 64.2 µM | – | –
Brc1cccc(-c2nn3c(Cn4cnc5ccccc54)nnc3s2)c1 | 26.8 µM | – | –
